Source: patent publication US20160106711A1, “3-3-Di-Substituted-Oxindoles as Inhibitors of Translation Initiation” (President and Fellows of Harvard College, priority 2012, published 2016)

What was measured:
KLN = experiment: Cell growth assay (sulforhodamine B), KLN cells; assay type: cell-based, mouse; details: Mus musculus, 120 h, 5 days, SRB
Protocol: […] Plates were then incubated with 0.4% SRB in 1% acetic acid for 1 h, washed with 1% acetic acid to remove the unbound dye, and air-dried. The bound dye was solubilized by addition of 10 mM Tris (pH 10), and the absorbance was determined in a Titertek Multiscan plate reader at 490 nm. The data calculations were carried out as described (the values for mean±SD of data from replicate wells are calculated): data are expressed in terms of % T/C [(OD of treated cells/OD of control cells)×100], as a measure of cell viability and survival in the presence of test materials. Calculations are also made for the concentration of test agents giving a T/C value of 50%, or 50% growth inhibition (IC50). With the SRB assay, a measure is made of the cell population density at time 0 (the time at which drugs are added) from two extra reference plates of inoculated cells fixed with TCA just prior to drug addition to the test plates. Thus, we have three measurements: control optical density (C), test optical density (T), and optical density at time zero (T0). The calculation is 100×[(T−T0)/(C−T0)]. If T is less than T0, cell killing has occurred and can be calculated from 100×[(T−T0)/T0]. Thus, for each drug-cell line combination, a dose-response curve is generated and three levels of effect are calculated.

CRL-2813 = experiment: Cell growth assay (sulforhodamine B), CRL-2813 cells; assay type: cell-based, human; details: Homo sapiens, CRL2813, 120 h, 5 days, SRB
Protocol: (§1) Adherent mouse (KLN) and human solid tumor cells (CRL-2351, and CRL-2813) were plated in 96-well plates and maintained for 5 days in the presence of 0.54 to 6 μM of individual compound, and cell proliferation was measured by the sulforhodamine B (SRB) assay as described in ref. 11: briefly, cells were fixed in 10% cold trichloroacetic acid at 4° C. for 1 h, extensively washed with double-distilled H2O and air-dried. Plates were then incubated with 0.4% SRB in 1% acetic acid for 1 h, washed with 1% acetic acid to remove the unbound dye, and air-dried. The bound dye was solubilized by addition of 10 mM Tris (pH 10), and the absorbance was determined in a Titertek Multiscan plate reader at 490 nm. The data calculations were carried out as described (the values for mean±SD of data from replicate wells are calculated): data are expressed in terms of % T/C [(OD of treated cells/OD of control cells)×100], as a measure of cell viability and survival in the presence of test materials. Calculations are also made for the concentration of test agents giving a T/C value of 50%, or 50% growth inhibition (IC50). With the SRB assay, a measure is made of the cell population density at time 0 (the time at which drugs are added) from two extra reference plates of inoculated cells fixed with TCA just prior to drug addition to the test plates. Thus, we have three measurements: control optical density (C), test optical density (T), and optical density at time zero (T0). The calculation is 100×[(T−T0)/(C−T0)]. If T is less than T0, cell killing has occurred and can be calculated from 100×[(T−T0)/T0]. Thus, for each drug-cell line combination, a dose-response curve is generated and three levels of effect are calculated.

CRL-2351 = experiment: Cell growth assay (sulforhodamine B), CRL-2351 cells; assay type: cell-based, human; details: Homo sapiens, 120 h, 5 days, SRB
Protocol: as §1

[1] = tested on: eIF2•GTP•Met-tRNAi ternary complex; experiment: Ternary complex assay (ATF-4 assay), dual luciferase firefly/renilla ratio; assay type: cell-based, mouse; details: Mus musculus; for maximal fold induction at 40 µM: read-out: ATF-4 Xmax @ 40 μM
Text: For assay development, a bi-directional plasmid was designed in which a common promoter/enhancer complex drives the transcription of firefly luciferase (F-luc) ORF fused to the 5′ untranslated region (UTR) of ATF-4, and of the renilla luciferase (R-luc) ORF fused to a 90-nucleotide 5′ UTR derived from the plasmid (FIG. 6A). Because the tetracycline-regulated transactivator ((tTA), required for driving transcription from this vector) is not normally expressed in the mammalian cells, stable KLN cancer cells were constructed that expressed tTA (KLN-tTA).
The KLN-tTA colonies that drove expression of reporter genes from pBISA-DL plasmid were selected by transient transfection and dual luciferase assay. One of these KLN-tTA cell lines was transfected with the pBISA-DL^(ATF-4) expression vector, stable colonies were selected by dual luciferase assay and expanded.
Plasmids and Ternary Complex Assay
(ATF-4 Assay). Briefly, bi-directional mammalian expression vector pBI (Clontech, CA) was modified to expand the multiple cloning sites (MCSs) and designated thereafter as pBISA. This vector contains seven copies of the tetracycline-regulated transactivator response element (TRE), which together act as core promoter/enhancer. The TRE is flanked on both sides by minimal human cytomegalovirus (CMV) minimal promoters allowing bi-directional transcription and two MCSs. Firefly and renilla luciferases were subcloned into MCS-I and MCS-II, respectively. This plasmid, designated pBISA-DL, transcribes two mRNAs that contain the 90 nucleotide plasmid derived 5′UTR (same sequence in both mRNAs), and the ORF encoding either firefly or renilla luciferase followed by a polyadenylation sequence as described in Ziegeler, G.; Ming, J.; Koseki, J. C.; Sevinc, S.; Chen, T.; Ergun, S.; Qin, X.; Aktas, B. H. J. Biol. Chem. 2010, 285, 15408 hereby incorporated by reference. This plasmid was further modified by inserting the 5′UTR of ATF-4 into MCS-I in front of the firefly luciferase mRNA. Transcription from this direction generates an mRNA that contains the firefly luciferase ORF preceded by a 5′UTR composed of 90 nucleotides derived from the plasmid and 267 nucleotides derived from the 5′UTR of ATF-4 mRNA. Transcription from the other direction generates an mRNA that contains the renilla luciferase ORF proceeded only by the 90-nucleotide plasmid-derived sequence in the 5′UTR. This expression plasmid is called pBISA-DL(ATF-4). In the dual luciferase assay, cells expressing firefly and renilla luciferases were lysed and the extracts assayed with a Dual-Glo Luciferase assay kit, per manufacturer's instruction (Promega Inc., Madison, Wis.). The data calculations were carried out as the ratio of firefly to renilla luciferase signal as described in Chen, T.; Ozel, D.; Qiao, Y.; Harbinski, F.; Chen, L.; Denoyelle, S.; He, X.; Zvereva, N.; Supko, J. G.; Chorev, M.; Halperin, J. A.; Aktas, B. H. Nat. Chem. Biol. 2011, 7, 610 hereby incorporated by reference.

Compound | IC50 (KLN) [µM] | IC50 (CRL-2813) [µM] | IC50 (CRL-2351) [µM] | maximal fold induction at 80 µM ([1]; read-out: ATF-4 Xmax) | maximal fold induction at 40 µM [1] | maximal fold induction at 5 µM ([1]; cell prints 5 (uM), read-out: ATF-4 Xmax)
C#CCOc1ccc(C(C)(C)C)cc1C1(c2ccccc2)C(=O)Nc2ccccc21 (stereo not drawn) [Sd123, 3-[5-tert-butyl-2-(prop-2-yn-1-yloxy)phenyl]-3-phenylindol-2-one] | > 20 | > 20 | 17.5 ± 2 | 5.1 ± 1.65 |  | 
COc1ccc(C2(c3cc(C(C)(C)C)ccc3OCCN3CCOCC3)C(=O)Nc3ccccc32)cc1 (stereo not drawn) [Sd139, 3-{5-tert-butyl-2-[2-(morpholin-4-yl)ethoxy]phenyl}-3-(4-methoxyphenyl)-indol-2-one] | 4.3 ± 1 | 2.4 ± 0.9 | 2.65 ± 1.5 |  | 6.3 ± 0.3 | 
COc1ccc(C2(c3cc(C(C)(C)C)ccc3O)C(=O)Nc3c2ccc(F)c3F)cc1 (stereo not drawn) [Sd140] | 12.3 ± 2 | 3 | 0.95 ± 0.08 |  | 1.2 ± 0.46 | 
CC(C)(C)c1ccc(O)c(C2(c3ccc(O)cc3)C(=O)Nc3c2ccc(F)c3F)c1 (stereo not drawn) [Sd141] | 15.3 ± 1.9 | 10.7 ± 3.9 | > 20 |  | 2.9 ± 0.6 | 
COc1ccc(C2(c3cc(C(C)(C)C)ccc3OCCN3CCOCC3)C(=O)Nc3ccccc32)cc1OC (stereo not drawn) [Sd152, 3-{5-tert-butyl-2-[2-(morpholin-4-yl)ethoxy]phenyl}-3-(3,4-dimethoxyphenyl)-indol-2-one] | > 20 | > 20 | > 20 | 2.8 |  | 
CN(C)c1ccc(C2(c3cc(C(C)(C)C)ccc3O)C(=O)Nc3ccccc32)cc1 (stereo not drawn) [Sd153] | 10.9 ± 1.3 | 11 | 2.3 ± 0.3 |  | 3.55 | 
CN(C)c1ccc(C2(c3cc(C(C)(C)C)ccc3OCCN3CCOCC3)C(=O)Nc3ccccc32)cc1 (stereo not drawn) [Sd154, 3-{5-tert-butyl-2-[2-(morpholin-4-yl)ethoxy]phenyl}-3-[4-(dimethylamino)phenyl]-indol-2-one] | 2.2 ± 0.6 | 7.5 ± 1 | 4.7 ± 0.3 |  | 7.15 ± 0.49 | 
CN(C)c1ccc(C2(c3cc(C(C)(C)C)ccc3OCCN3CCOCC3)C(=O)Nc3c2ccc(F)c3F)cc1 (stereo not drawn) [Sd163] | 15.7 ± 1.9 | 11 ± 1.3 | 4 ± 1 | 5.1 ± 0.1 |  | 
CC(C)(C)c1ccc(OCC(=O)O)c(C2(c3ccccc3)C(=O)Nc3ccccc32)c1 (stereo not drawn) [Sd177] | > 20 | > 20 | > 20 | 1.65 ± 0.04 |  | 
COc1ccc(C2(c3cc(OC(C)C)ccc3OCCN3CCOCC3)C(=O)Nc3ccccc32)cc1 (stereo not drawn) [Sd179, 3-(4-Methoxyphenyl)-3-{2-[2-(morpholin-4-yl)ethoxy]-5-(propan-2-yloxy)phenyl}-indol-2-one] | 11.8 ± 1 | 13.4 ± 0.7 | 8.6 ± 1 | 2.6 ± 0.14 |  | 
COc1ccc(C2(c3cc(C(C)(C)C)ccc3O)C(=O)Nc3ccc(OC)cc32)cc1 (stereo not drawn) [Sd184] | 14.3 ± 3 | 11.1 ± 1.1 | 2.9 ± 0.3 |  | 4 ± 0.36 | 
COc1ccc(C2(c3cc(C(C)(C)C)ccc3OCCN3CCOCC3)C(=O)Nc3ccc(OC)cc32)cc1 (stereo not drawn) [Sd185, 3-{5-tert-butyl-2-[2-(morpholin-4-yl)ethoxy]phenyl}-5-methoxy-3-(4-methoxyphenyl)-indol-2-one] | 2.75 ± 0.3 | 2.9 ± 0.3 | 4.5 ± 0.7 |  | 3.92 ± 0.16 | 
COC(=O)c1cccc2c1NC(=O)C2(c1ccc(OC)cc1)c1cc(C(C)(C)C)ccc1O (stereo not drawn) [Sd202] | > 20 | 12.2 ± 0.5 | 3.4 ± 0.6 |  | 4.12 ± 0.42 | 
COC(=O)c1cccc2c1NC(=O)C2(c1ccc(OC)cc1)c1cc(C(C)(C)C)ccc1OCCN1CCOCC1 (stereo not drawn) [Sd203, Methyl 3-{5-tert-butyl-2-[2-(morpholin-4-yl)ethoxy]phenyl}-3-(4-methoxyphenyl)-2-oxoindole-7-carboxylate] | 17 ± 3.5 | 14.6 ± 2.8 | 16.3 ± 1.6 |  |  | 1.51 ± 0.3
COc1ccc(C2(c3cc(C(C)(C)C)ccc3OCCN3CCOCC3)C(=O)Nc3ccc(I)cc32)cc1 (stereo not drawn) [Sd204, 3-{5-tert-butyl-2-[2-(morpholin-4-yl)ethoxy]phenyl}-5-iodo-3-(4-methoxyphenyl)indol-2-one] | 12 ± 1.2 | 2.6 ± 0.4 | 6.1 ± 1.7 |  | 4.5 ± 0.93 | 
COc1ccc(C2(c3cc(C(C)(C)C)ccc3OCCN3CCOCC3)C(=O)Nc3ccccc32)cc1F (stereo not drawn) [Sd205] | 3.4 ± 1.2 | 2.7 ± 0.4 | 2.5 ± 0.6 | 5.2 ± 2.1 |  | 
CC(C)(C)c1ccc(O)c(C2(c3ccccc3)C(=O)Nc3ccc(I)cc32)c1 (stereo not drawn) [Sd223] | 14.9 ± 3.8 | 2.8 ± 0.2 | 3.5 |  | 7.2 ± 1.2 | 
CC(C)(C)c1ccc(O)c(C2(c3ccccc3)C(=O)Nc3ccc(OC(F)(F)F)cc32)c1 (stereo not drawn) [Sd224] | 8 | 1 | 2.5 ± 0.9 |  | 2.56 ± 0.3 | 
COc1ccc(C2(c3cc(C(C)(C)C)ccc3OCCN3CCOCC3)C(=O)Nc3ccc(OC(F)(F)F)cc32)cc1 (stereo not drawn) [Sd225] | 9.3 ± 2.7 | 1.9 ± 0.7 | 2.9 ± 0.27 |  | 5.11 ± 0.48 | 
CC(C)(C)c1ccc(O)c(C2(c3ccccc3)C(=O)Nc3ccc(-c4ccc(N5CCOCC5)nc4)cc32)c1 (stereo not drawn) [Sd231] | 13.3 ± 2.4 | 2.5 ± 1.5 | 1.8 ± 0.4 | 15.6 ± 0.4 |  | 
CC(C)(C)c1ccc(O)c(C2(c3ccccc3)C(=O)Nc3ccc4ncsc4c32)c1 (stereo not drawn) [Sd233] | 8 | 0.95 ± 0.1 | 2.2 ± 1 |  | 1.2 ± 0.05 | 
